What all share (type): functional
The species named for experiment [1] is Rattus norvegicus. The experiment can be described thus: Effect on colon large bowel tumorigenesis in rats fed with safflower oil diet(Group 1 diet).
Experiment [2] is filed under the species Rattus norvegicus. The experiment can be described thus: Average number of tumors per rat in colon large bowel tumorigenesis in rats fed with safflower oil diet(Group 1 diet).
For experiment [3], the species on record is Rattus norvegicus. The experiment can be described thus: Average number of tumors per rat in colon small bowel tumorigenesis in rats fed with cholesterol and cholic acid diet(Group 2 diet).
For experiment [4], the species on record is Rattus norvegicus. Briefly: Average number of tumors per rat in colon small bowel tumorigenesis in rats fed with safflower oil diet(Group 1 diet).
The species entered for experiment [5] is Rattus norvegicus. The experiment can be described thus: Effect on colon large bowel tumorigenesis in rats fed with cholesterol and cholic acid diet(Group 2 diet).
For experiment [6], the species on record is Rattus norvegicus. The experiment can be described thus: Average number of tumors per rat in colon large bowel tumorigenesis in rats fed with cholesterol and cholic acid diet(Group 2 diet).
Experiment [7] is filed under the species Rattus norvegicus. Briefly: Effect on colon small bowel tumorigenesis in rats fed with safflower oil diet(Group 1 diet).
For experiment [8], the species on record is Rattus norvegicus. Briefly: Effect on colon small bowel tumorigenesis in rats fed with cholesterol and cholic acid diet(Group 2 diet).

Molecules are shown by their SMILES.

For `NC[C@@H]1O[C@H](O[C@H]2[C@@H](O)[C@H](O[C@@H]3[C@@H](O)[C@H](N)C[C@H](N)[C@H]3O[C@H]3O[C@H](CN)[C@@H](O)[C@H](O)[C@H]3N)O[C@@H]2CO)[C@H](N)[C@@H](O)[C@@H]1O` [FRAMYCETIN], the Incidence in the experiment filed under Rattus norvegicus [1] is 98%; in the experiment filed under Rattus norvegicus [5], 80%; in the experiment filed under Rattus norvegicus [7], 22%; in the experiment filed under Rattus norvegicus [8] it was 25%. Further, the No. of tumors in the experiment listed under Rattus norvegicus [2] came to 3; in the experiment filed under Rattus norvegicus [3], 0.5; in the experiment listed under Rattus norvegicus [4], 0.5; in the experiment listed under Rattus norvegicus [6], 1.13.

The record behind these values is ChEMBL document CHEMBL1132093, “Fecal excretion pattern of bile acids in rats fed high fat diets and neomycin in induced colon tumorigenesis” (1999).
